Assay results as given in article PMC5302928, “[^64Cu]XYIMSR-06: A dual-motif CAIX ligand for PET imaging of clear cell renal cell carcinoma” (Oncotarget, 2016).
Where “and” joins values, the source holds several entries; their conditions need not be identical. Equal values may be shown once.

Experiments:
[1] = In vivo metabolism study, plasma radio-TLC; set-up: species or system NSG mice; details: for Percentage of intact radiotracer in plasma: 7.4 MBq i.v.
Procedure: PET acquisition times were: 5 min/bed (1 h) post-injection were developed using a mobile phase consisting of 45% of [Al18F]XYIMSR-04. PET images were co-registered acetonitrile, 55% water and 0.1% trifluoroacetic acid. The with the corresponding 360-slice CT images. Imaging TLC plate was dried and exposed to Kodak Biomax x-ray datasets were reconstructed using the 3D-FORE/2D-OSEM film (Fisher Scientific). Standard solutions had Rf value of iterative algorithm with 2 iterations and 16 subsets, using 0.6. The intensity of bans on the film were calculated with the manufacturer ’s software. Display of images utilized the Image J software (NIH, Bethesda, MD). The percentages Amide software (Dice Holdings, Inc. NY). The 1 h image of intact [64Cu]XYIMSR-06 in plasma were 86.2%, 98.3, is shown below (Supplementary Figure S2): and 100% for 0.5h, 1h, and 2h plasma samples, respectively.
Metabolism study REFERENCES
In vivo metabolism of [64Cu]XYIMSR-06 in NSG 1. Wichert M, Krall N, Decurtins W, Franzini RM, Pretto mice intravenously (tail vein) with 7.4 MBq (200 μCi) F, Schneider P, Neri D, Scheuermann J. Dual-display of [64Cu]XYIMSR-06 in 200 µL of PBS (pH = 7.0). One of small molecules enables the discovery of ligand pairs mouse was euthanized at 0.5, 1, and 2hr time points and facilitates affinity maturation. Nature chemistry. plasma was prepared by centrifugation of whole blood 2015;7:241-9. for 15 minutes at 2,500xg at 4°C. 5 uL of the plasma 2. D’Souza CA, McBride WJ, Sharkey RM, Todaro LJ, samples and control (7.4 kBq of [64Cu]XYIMSR-06) were Goldenberg DM. High-yielding aqueous 18F-labeling of spotted onto silica gel 60 RP-18 F254S glass TLC plates peptides via Al18F chelation. Bioconjugate chemistry.
(EMD Millipore Corp., Billerica, MA) and the plates 2011;22:1793-803. […]

[2] = tested on: CAIX-expressing SK-RC-52 ccRCC tumor xenografts; assay: Biodistribution of [^64Cu]XYIMSR-06 in mice bearing SK-RC-52 xenografts; format: in vivo
Procedure: Animal experiments were performed in accordance with protocols approved by the Johns Hopkins Animal Care and Use Committee (ACUC). Six-week-old female NOD/SCID mice were purchased from the Animal Resource Core of the Sidney Kimmel Comprehensive Cancer Center of Johns Hopkins and were subcutaneously injected in the upper right flank with 1 × 10^6 SK-RC-52 cells in RPMI 1640 GlutaMAX™ media (Life Technologies, Frederick, MD) supplemented with 1% fetal bovine serum (FBS). Mice were monitored for tumor size and used for PET/CT imaging when the size of the tumor reached 100 mm^3.
Mice bearing SK-RC-52 xenografts within the upper right flank were injected intravenously with 740 kBq (20 μCi) of [^64Cu]XYIMSR-06 in 200 μL of PBS. For in vivo competition (binding specificity) studies, tumor-bearing mice were injected with 740 kBq (20 μCi) of [^64Cu]XYIMSR-06 and 200 nmole of 1 in 200 μL of PBS concurrently. At specific times after injection (1 h, 4 h, 8 h and 24 h), mice (n = 5) were sacrificed by cervical dislocation with blood immediately collected by cardiac puncture. Heart, lungs, pancreas, spleen, fat, brain, muscle, small intestines, liver, stomach, kidney, urinary bladder, and tumor were also collected. Each organ was weighed and the tissue radioactivity was measured with an automated gamma counter (1282 Compugamma CS, Pharmacia/ LKBNuclear, Inc., Mt. Waverly, Vic. Australia). The percentage of injected dose per gram of tissue (%ID/g) was calculated by comparison with samples of a standard dilution of the initial dose. All measurements were corrected for radioactive decay. Data are expressed as mean ± standard deviation (SD).

[3] = 8 h+Block (co-injected 200 nmole of 1)
[4] = 24 h+Block (co-injected 200 nmole of 1)
[5] = one phase exponential decay fit

Compound: CC(CCC(=O)NC(CC(=O)NC(CC(=O)NC(CCCCn1cc(CCCC(=O)Nc2nnc(S(N)(=O)=O)s2)nn1)C(=O)NCCOCCOCCNC(=S)Nc1ccc(CC2CN(CC(=O)O)CCN(CC(=O)[O-])CCN2CC(=O)[O-])cc1)C(=O)O)C(=O)O)(c1ccc(O)cc1)c1ccc(O)cc1.[64Cu+2] (stereo not shown) [[^64Cu]XYIMSR-06]
- Percentage of intact radiotracer in plasma ([1]; 0.5h plasma sample): 86.2%
- Percentage of intact radiotracer in plasma ([1]; 1h plasma sample): 98.3%
- Percentage of intact radiotracer in plasma ([1]; 2h plasma sample): 100%
- In vivo stability by blood metabolites (radio thin layer chromatography) ([1]; post-injection): stable up to 2 h post-injection
- Bladder uptake ([2]; 1 h): 11.12±6.33 %ID/g
- Blood uptake ([2]; 1 h): 0.66±0.05 %ID/g
- Brain uptake ([2]; 1 h): 1.46±2.23 %ID/g
- Fat uptake ([2]; 1 h): 0.80±0.17 %ID/g
- Heart uptake ([2]; 1 h): 3.41±0.79 %ID/g
- Kidney (kid) uptake ([2]; 1 h): 33.65±3.91 %ID/g
- Liver uptake ([2]; 1 h): 3.25±0.97 %ID/g
- Lung uptake ([2]; 1 h): 25.52±3.35 %ID/g
- Muscle (mm) uptake ([2]; 1 h): 1.28±0.27 %ID/g
- Pancreas uptake ([2]; 1 h): 2.94±0.24 %ID/g
- Sm. intestine uptake ([2]; 1 h): 7.35±0.78 %ID/g
- Spleen uptake ([2]; 1 h): 0.36±0.08 %ID/g
- Stomach uptake ([2]; 1 h): 14.80±2.27 %ID/g
- Tumor uptake ([2]; 1 h): 14.5 %ID/g and 14.47±2.69 %ID/g
- Tumor/kid (kidney) ratio ([2]; 1 h): 0.4±0.1
- Tumor/mm (muscle) ratio ([2]; 1 h): 10.8±3.7
- Bladder uptake ([2]; 4 h): 17.05±8.86 %ID/g
- Blood uptake ([2]; 4 h): 0.33±0.06 %ID/g
- Brain uptake ([2]; 4 h): 0.29±0.06 %ID/g
- Fat uptake ([2]; 4 h): 0.52±0.29 %ID/g
- Heart uptake ([2]; 4 h): 1.78±0.33 %ID/g
- Kidney (kid) uptake ([2]; 4 h): 19.99±2.88 %ID/g
- Liver uptake ([2]; 4 h): 2.18±0.57 %ID/g
- Lung uptake ([2]; 4 h): 12.03±1.61 %ID/g
- Muscle (mm) uptake ([2]; 4 h): 0.70±0.18 %ID/g
- Pancreas uptake ([2]; 4 h): 1.36±0.19 %ID/g
- Sm. intestine uptake ([2]; 4 h): 4.15±0.69 %ID/g
- Spleen uptake ([2]; 4 h): 0.24±0.04 %ID/g
- Stomach uptake ([2]; 4 h): 8.19±0.97 %ID/g
- Tumor uptake ([2]; 4 h): 19.3 %ID/g and 19.31±4.51 %ID/g
- Tumor/Blood ratio ([2]; 4 h): 57.7±9.3
- Tumor/kid (kidney) ratio ([2]; 4 h): 1.0±0.1
- Tumor/mm (muscle) ratio ([2]; 4 h): 29.4±9.9
- Bladder uptake ([2]; 8 h): 7.43±7.72 %ID/g
- Blood uptake ([2]; 8 h): 0.13±0.02 %ID/g
- Brain uptake ([2]; 8 h): 0.24±0.06 %ID/g
- Fat uptake ([2]; 8 h): 0.28±0.27 %ID/g
- Heart uptake ([2]; 8 h): 0.65±0.10 %ID/g
- Kidney (kid) uptake ([2]; 8 h): 8.14±1.15 %ID/g
- Liver uptake ([2]; 8 h): 0.99±0.22 %ID/g
- Lung uptake ([2]; 8 h): 4.64±0.58 %ID/g
- Muscle (mm) uptake ([2]; 8 h): 0.21±0.05 %ID/g
- Pancreas uptake ([2]; 8 h): 0.47±0.21 %ID/g
- Sm. intestine uptake ([2]; 8 h): 1.98±0.14 %ID/g
- Spleen uptake ([2]; 8 h): 0.18±0.02 %ID/g
- Stomach uptake ([2]; 8 h): 4.02±0.53 %ID/g
- Tumor uptake ([2]; 8 h): 16.74±1.58 %ID/g
- Tumor/Blood ratio ([2]; 8 h): 129.6±18.8
- Tumor/kid (kidney) ratio ([2]; 8 h): 2.1 and 2.1 ± 0.3 and 2.1±0.26
- Tumor/mm (muscle) ratio ([2]; 8 h): 84.3±21.0
- Bladder uptake [2, 3]: 1.45±1.53 %ID/g
- Blood uptake [2, 3]: 0.08±0.01 %ID/g
- Brain uptake [2, 3]: 0.04±0.01 %ID/g
- Fat uptake [2, 3]: 0.05±0.01 %ID/g
- Heart uptake [2, 3]: 0.16±0.03 %ID/g
- Kidney (kid) uptake [2, 3]: 1.82±0.39 %ID/g
- Liver uptake [2, 3]: 0.55±0.08 %ID/g
- Lung uptake [2, 3]: 0.77±0.14 %ID/g
- Muscle (mm) uptake [2, 3]: 0.05±0.02 %ID/g
- Pancreas uptake [2, 3]: 0.14±0.03 %ID/g
- Sm. intestine uptake [2, 3]: 0.38±0.06 %ID/g
- Spleen uptake [2, 3]: 0.14±0.02 %ID/g
- Stomach uptake [2, 3]: 0.69±0.18 %ID/g
- Tumor uptake [2, 3]: 2.39±0.24 %ID/g
- Tumor/Blood ratio [2, 3]: 32.0±3.8
- Tumor/kid (kidney) ratio [2, 3]: 1.3±10.2
- Tumor/mm (muscle) ratio [2, 3]: 53.0±12.6
- Effect of co-injection of 200 nmole of 1 on tumor uptake (binding specificity) ([2]; 8 h and 24 h): blocked tumor uptake
- All other tumor-to-organ ratios tested (other than kidney and lung) ([2]; 24 h): ≥ 10
- Bladder uptake ([2]; 24 h): 0.34±0.09 %ID/g
- Brain uptake ([2]; 24 h): 0.13±0.02 %ID/g
- Fat uptake ([2]; 24 h): 0.03±0.01 %ID/g
- Heart uptake ([2]; 24 h): 0.12±0.03 %ID/g
- Kidney (kid) uptake ([2]; 24 h): 0.90±0.12 %ID/g
- Liver uptake ([2]; 24 h): 0.38±0.03 %ID/g
- Lung uptake ([2]; 24 h): 1.27±0.38 %ID/g
- Muscle (mm) uptake ([2]; 24 h): 0.02±0.01 %ID/g
- Pancreas uptake ([2]; 24 h): 0.21±0.29 %ID/g
- Sm. intestine uptake ([2]; 24 h): 0.47±0.03 %ID/g
- Spleen uptake ([2]; 24 h): 0.09±0.01 %ID/g
- Stomach uptake ([2]; 24 h): 0.65±0.04 %ID/g
- Tumor uptake ([2]; 24 h): 6.2 %ID/g and 6.23±1.41 %ID/g
- Tumor-to-lung ratio ([2]; 24 h): 4.9
- Tumor/Blood ratio ([2]; 24 h): 142.6±115.8
- Tumor/kid (kidney) ratio ([2]; 24 h): 7.1 and 7.1±2.5
- Bladder uptake [2, 4]: 0.45±0.50 %ID/g
- Blood uptake [2, 4]: 0.01±0.08 %ID/g
- Brain uptake [2, 4]: 0.02±0.01 %ID/g
- Fat uptake [2, 4]: 0.01±0.01 %ID/g
- Heart uptake [2, 4]: 0.08±0.01 %ID/g
- Kidney (kid) uptake [2, 4]: 0.48±0.09 %ID/g
- Liver uptake [2, 4]: 0.42±0.04 %ID/g
- Lung uptake [2, 4]: 0.29±0.05 %ID/g
- Muscle (mm) uptake [2, 4]: 0.04±0.06 %ID/g
- Pancreas uptake [2, 4]: 0.07±0.02 %ID/g
- Sm. intestine uptake [2, 4]: 0.19±0.05 %ID/g
- Spleen uptake [2, 4]: 0.11±0.04 %ID/g
- Stomach uptake [2, 4]: 0.29±0.04 %ID/g
- Tumor uptake [2, 4]: 1.20±0.47 %ID/g
- Tumor/Blood ratio [2, 4]: 27.1±26.7
- Tumor/kid (kidney) ratio [2, 4]: 2.4±0.4
- Tumor/mm (muscle) ratio [2, 4]: 49.0±28.7
- Calculated half-life, Bladder [2, 5]: 116.2 h
- Calculated half-life, Blood [2, 5]: 2.153 h
- Calculated half-life, Brain [2, 5]: 0.860 h
- Calculated half-life, Fat [2, 5]: 4.666 h
- Calculated half-life, Heart [2, 5]: 2.293 h
- Calculated half-life, Kidney [2, 5]: 3.591 h
- Calculated half-life, Liver [2, 5]: 3.375 h
- Calculated half-life, Lung [2, 5]: 2.542 h
- Calculated half-life, Muscle [2, 5]: 3.035 h
- Calculated half-life, Pancreas [2, 5]: 2.330 h
- Calculated half-life, SK-RC-52 tumor [2, 5]: 996.1 h
- Calculated half-life, Small intestine [2, 5]: 3.322 h
- Calculated half-life, Spleen [2, 5]: 4.008 h
- Calculated half-life, Stomach [2, 5]: 3.397 h
- Radiotracer uptake within liver ([2]; within 24 h): no significant radiotracer uptake within liver
